# Laboratory results from PubChem BioAssay (NCI).
#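 Interpolation was linear, between the two tested concentrations surrounding the appropriate level; five concentrations were tested over 48 hours in 96-well plates. The concentration for 50% growth inhibition is given as GI50. Definition used: TGI = concentration required for complete inhibition of growth.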
# Assays:
# Assay in all cases: growth of human tumour cells (NCI), 48 h
# 786-0 renal = system: 786-0 renal
# A498 renal = system: A498 renal
# A549 NSCLC = system: A549 NSCLC
# ACHN renal = system: ACHN renal
# CAKI-1 renal = system: CAKI-1 renal
# CCRF-CEM leukemia = system: CCRF-CEM leukemia
# COLO 205 colon = system: COLO 205 colon
# DLD-1 colon = system: DLD-1 colon
# DMS 114 small cell lung = system: DMS 114 small cell lung
# DMS 273 small cell lung = system: DMS 273 small cell lung
# EKVX NSCLC = system: EKVX NSCLC
# HCC-2998 colon = system: HCC-2998 colon
# HCT-116 colon = system: HCT-116 colon
# HCT-15 colon = system: HCT-15 colon
# HL-60(TB) leukemia = system: HL-60(TB) leukemia
# HOP-18 NSCLC = system: HOP-18 NSCLC
# HOP-62 NSCLC = system: HOP-62 NSCLC
# HOP-92 NSCLC = system: HOP-92 NSCLC
# HT29 colon = system: HT29 colon
# IGROV1 ovarian = system: IGROV1 ovarian
# K-562 leukemia = system: K-562 leukemia
# KM12 colon = system: KM12 colon
# KM20L2 colon = system: KM20L2 colon
# LOX IMVI melanoma = system: LOX IMVI melanoma
# LXFL 529 NSCLC = system: LXFL 529 NSCLC
# M14 melanoma = system: M14 melanoma
# M19-MEL melanoma = system: M19-MEL melanoma
# MALME-3M melanoma = system: MALME-3M melanoma
# MOLT-4 leukemia = system: MOLT-4 leukemia
# NCI-H226 lung = system: NCI-H226 lung
# NCI-H23 lung = system: NCI-H23 lung
# NCI-H460 lung = system: NCI-H460 lung
# NCI-H522 lung = system: NCI-H522 lung
# OVCAR-3 ovarian = system: OVCAR-3 ovarian
# OVCAR-4 ovarian = system: OVCAR-4 ovarian
# OVCAR-5 ovarian = system: OVCAR-5 ovarian
# OVCAR-8 ovarian = system: OVCAR-8 ovarian
# RPMI-8226 leukemia = system: RPMI-8226 leukemia
# RXF 393 renal = system: RXF 393 renal
# RXF-631 renal = system: RXF-631 renal
# SF-268 CNS = system: SF-268 CNS
# SF-295 CNS = system: SF-295 CNS
# SF-539 CNS = system: SF-539 CNS
# SK-MEL-2 melanoma = system: SK-MEL-2 melanoma
# SK-MEL-28 melanoma = system: SK-MEL-28 melanoma
# SK-MEL-5 melanoma = system: SK-MEL-5 melanoma
# SK-OV-3 ovarian = system: SK-OV-3 ovarian
# SN12C renal = system: SN12C renal
# SNB-19 CNS = system: SNB-19 CNS
# SNB-75 CNS = system: SNB-75 CNS
# SNB-78 CNS = system: SNB-78 CNS
# SW-620 colon = system: SW-620 colon
# TK-10 renal = system: TK-10 renal
# U251 CNS = system: U251 CNS
# UACC-257 melanoma = system: UACC-257 melanoma
# UACC-62 melanoma = system: UACC-62 melanoma
# UO-31 renal = system: UO-31 renal
# XF 498 CNS = system: XF 498 CNS
compound,measurement,setting,value
C[n+]1[se]c2ccccc2c1Cl,TGI,786-0 renal,> 59.2 µM
same,TGI,A498 renal,> 100 µM
same,TGI,A549 NSCLC,> 94 µM
same,TGI,ACHN renal,> 70.7 µM
same,TGI,CAKI-1 renal,> 56.2 µM
same,TGI,CCRF-CEM leukemia,21.5 µM
same,TGI,COLO 205 colon,> 59.8 µM
same,TGI,DLD-1 colon,> 59.7 µM
same,TGI,DMS 114 small cell lung,> 70 µM
same,TGI,DMS 273 small cell lung,41.5 µM
same,TGI,EKVX NSCLC,52.1 µM
same,TGI,HCC-2998 colon,> 81.9 µM
same,TGI,HCT-116 colon,31 µM
same,TGI,HCT-15 colon,> 67.3 µM
same,TGI,HL-60(TB) leukemia,19.6 µM
same,TGI,HOP-18 NSCLC,52.9 µM
same,TGI,HOP-62 NSCLC,> 58.8 µM
same,TGI,HOP-92 NSCLC,20.2 µM
same,TGI,HT29 colon,> 76.3 µM
same,TGI,IGROV1 ovarian,> 77.5 µM
same,TGI,K-562 leukemia,> 70.7 µM
same,TGI,KM12 colon,> 56.7 µM
same,TGI,KM20L2 colon,> 75.7 µM
same,TGI,LOX IMVI melanoma,39.7 µM
same,TGI,LXFL 529 NSCLC,> 100 µM
same,TGI,M14 melanoma,27.8 µM
same,TGI,M19-MEL melanoma,27.3 µM
same,TGI,MALME-3M melanoma,> 56.9 µM
same,TGI,MOLT-4 leukemia,> 63.6 µM
same,TGI,NCI-H226 lung,> 71.1 µM
same,TGI,NCI-H23 lung,45.8 µM
same,TGI,NCI-H460 lung,> 100 µM
same,TGI,NCI-H522 lung,42.7 µM
same,TGI,OVCAR-3 ovarian,> 71.9 µM
same,TGI,OVCAR-4 ovarian,> 60 µM
same,TGI,OVCAR-5 ovarian,> 79.9 µM
same,TGI,OVCAR-8 ovarian,> 84.7 µM
same,TGI,RPMI-8226 leukemia,> 67 µM
same,TGI,RXF 393 renal,50.4 µM
same,TGI,RXF-631 renal,> 67.2 µM
same,TGI,SF-268 CNS,52.4 µM
same,TGI,SF-295 CNS,50.9 µM
same,TGI,SF-539 CNS,37.1 µM
same,TGI,SK-MEL-2 melanoma,28.1 µM
same,TGI,SK-MEL-28 melanoma,> 54.7 µM
same,TGI,SK-MEL-5 melanoma,31.1 µM
same,TGI,SK-OV-3 ovarian,> 100 µM
same,TGI,SN12C renal,23.7 µM
same,TGI,SNB-19 CNS,> 100 µM
same,TGI,SNB-75 CNS,45.8 µM
same,TGI,SNB-78 CNS,> 72.8 µM
same,TGI,SW-620 colon,42.6 µM
same,TGI,TK-10 renal,> 63 µM
same,TGI,U251 CNS,> 74.4 µM
same,TGI,UACC-257 melanoma,> 46.9 µM
same,TGI,UACC-62 melanoma,33.2 µM
same,TGI,UO-31 renal,> 63.5 µM
same,TGI,XF 498 CNS,> 54.9 µM
CCO.CCO.Oc1ccc(Nc2ncns2)cc1.Oc1ccc(Nc2ncns2)cc1.[Ti],GI50,786-0 renal,49.6 µM
same,TGI,786-0 renal,> 100 µM
same,GI50,A498 renal,28.6 µM
same,TGI,A498 renal,74.9 µM
same,GI50,A549 NSCLC,43.6 µM
same,TGI,A549 NSCLC,> 100 µM
same,GI50,ACHN renal,33.2 µM
same,TGI,ACHN renal,> 100 µM
same,GI50,CAKI-1 renal,47.5 µM
same,TGI,CAKI-1 renal,> 100 µM
same,GI50,CCRF-CEM leukemia,27.7 µM
same,TGI,CCRF-CEM leukemia,> 100 µM
same,GI50,COLO 205 colon,21.5 µM
same,TGI,COLO 205 colon,47.4 µM
same,GI50,DLD-1 colon,36.5 µM
same,TGI,DLD-1 colon,> 100 µM
same,GI50,DMS 114 small cell lung,21.6 µM
same,TGI,DMS 114 small cell lung,67.5 µM
same,GI50,DMS 273 small cell lung,25.3 µM
same,TGI,DMS 273 small cell lung,80.7 µM
same,GI50,EKVX NSCLC,34.6 µM
same,TGI,EKVX NSCLC,87.9 µM
same,GI50,HCC-2998 colon,53.1 µM
same,TGI,HCC-2998 colon,> 100 µM
same,GI50,HCT-116 colon,30.2 µM
same,TGI,HCT-116 colon,> 100 µM
same,GI50,HCT-15 colon,48.1 µM
same,TGI,HCT-15 colon,> 100 µM
same,GI50,HL-60(TB) leukemia,24.7 µM
same,TGI,HL-60(TB) leukemia,74.1 µM
same,GI50,HOP-18 NSCLC,> 100 µM
same,TGI,HOP-18 NSCLC,> 100 µM
same,GI50,HOP-62 NSCLC,71.5 µM
same,TGI,HOP-62 NSCLC,> 100 µM
same,GI50,HT29 colon,31.5 µM
same,TGI,HT29 colon,> 100 µM
same,GI50,IGROV1 ovarian,93 µM
same,TGI,IGROV1 ovarian,> 100 µM
same,GI50,K-562 leukemia,29 µM
same,TGI,K-562 leukemia,> 100 µM
same,GI50,KM12 colon,47.5 µM
same,TGI,KM12 colon,> 100 µM
same,GI50,KM20L2 colon,> 100 µM
same,TGI,KM20L2 colon,> 100 µM
same,GI50,LOX IMVI melanoma,30.1 µM
same,TGI,LOX IMVI melanoma,> 100 µM
same,GI50,LXFL 529 NSCLC,24.7 µM
same,TGI,LXFL 529 NSCLC,> 100 µM
same,GI50,M14 melanoma,45.4 µM
same,TGI,M14 melanoma,> 100 µM
same,GI50,M19-MEL melanoma,44.5 µM
same,TGI,M19-MEL melanoma,> 100 µM
same,GI50,MALME-3M melanoma,38.3 µM
same,TGI,MALME-3M melanoma,> 100 µM
same,GI50,MOLT-4 leukemia,27.5 µM
same,TGI,MOLT-4 leukemia,> 100 µM
same,GI50,NCI-H226 lung,> 100 µM
same,TGI,NCI-H226 lung,> 100 µM
same,GI50,NCI-H23 lung,27.6 µM
same,TGI,NCI-H23 lung,91.8 µM
same,GI50,NCI-H460 lung,26.7 µM
same,TGI,NCI-H460 lung,87.7 µM
same,GI50,NCI-H522 lung,13.6 µM
same,TGI,NCI-H522 lung,28.3 µM
same,GI50,OVCAR-3 ovarian,55.8 µM
same,TGI,OVCAR-3 ovarian,> 100 µM
same,GI50,OVCAR-4 ovarian,38.8 µM
same,TGI,OVCAR-4 ovarian,> 100 µM
same,GI50,OVCAR-5 ovarian,> 100 µM
same,TGI,OVCAR-5 ovarian,> 100 µM
same,GI50,OVCAR-8 ovarian,39.7 µM
same,TGI,OVCAR-8 ovarian,> 100 µM
same,GI50,RPMI-8226 leukemia,31.3 µM
same,TGI,RPMI-8226 leukemia,> 100 µM
same,GI50,RXF-631 renal,33 µM
same,TGI,RXF-631 renal,> 100 µM
same,GI50,SF-268 CNS,36.2 µM
same,TGI,SF-268 CNS,> 100 µM
same,GI50,SF-295 CNS,69.9 µM
same,TGI,SF-295 CNS,> 100 µM
same,GI50,SF-539 CNS,34.5 µM
same,TGI,SF-539 CNS,> 100 µM
same,GI50,SK-MEL-2 melanoma,27.6 µM
same,TGI,SK-MEL-2 melanoma,70.7 µM
same,GI50,SK-MEL-28 melanoma,53 µM
same,TGI,SK-MEL-28 melanoma,> 100 µM
same,GI50,SK-MEL-5 melanoma,23.4 µM
same,TGI,SK-MEL-5 melanoma,72.3 µM
same,GI50,SK-OV-3 ovarian,> 100 µM
same,TGI,SK-OV-3 ovarian,> 100 µM
same,GI50,SN12C renal,67 µM
same,TGI,SN12C renal,> 100 µM
same,GI50,SNB-19 CNS,64.6 µM
same,TGI,SNB-19 CNS,> 100 µM
same,GI50,SNB-75 CNS,15.8 µM
same,TGI,SNB-75 CNS,69.1 µM
same,GI50,SNB-78 CNS,41.6 µM
same,TGI,SNB-78 CNS,> 100 µM
same,GI50,SW-620 colon,39.5 µM
same,TGI,SW-620 colon,> 100 µM
same,GI50,TK-10 renal,50.8 µM
same,TGI,TK-10 renal,> 100 µM
same,GI50,UACC-257 melanoma,30.2 µM
same,TGI,UACC-257 melanoma,> 100 µM
same,GI50,UACC-62 melanoma,45.9 µM
same,TGI,UACC-62 melanoma,> 100 µM
same,GI50,UO-31 renal,41.6 µM
same,TGI,UO-31 renal,> 100 µM
same,GI50,XF 498 CNS,44.9 µM
same,TGI,XF 498 CNS,> 100 µM
